Measurements: patent US20230248689A1, “PHARMACEUTICAL FORMULATIONS OF GRISEOFULVIN FOR LONG-TERM OCULAR DELIVERY” (Purdue Research Foundation, priority 2020, published 2023)

Key:
[1] = test system: human retinal endothelial cells (HREC); experiment: Long-term proliferation assay on HRECs with release samples collected over time; format: cell-based
Procedure: The formulations of the present invention, i.e. microparticles (MPs) or nanoparticles (NPs) of the griseofulvin (GRF) were tested for in vitro cell study, in particular long-term proliferation assay. This study provides an estimation of in vivo effect of griseofulvin formulations. To compare the long-term antiproliferative effect on human retinal endothelial cells (HREC), time averaged proliferation inhibition index (PII) was calculated (Σ AUC/time) from the plot of % proliferation at each time vs. time. The higher the PII indicating the prolonged anti-proliferative effects on HREC.
The long-term anti-proliferation effect of GRF loaded NPs from example 3B was studied, wherein GRF-PLGA-NPs were dispersed in 0.5 mL of growth media at GRF concentration ranging from 600 μM to 1200 μM. At specific time points (1, 2, 3, 4, 5, 6, 7, 10, 15, 20, and 25 days), tubes were centrifuged at 5k rpm for 5 minutes and the supernatant was collected and stored at −80° C. Pellet was redispersed in 0.5 mL fresh media, and the incubation was continued. […]
Human retinal endothelial cells (HREC) were plated in transparent 96 well plates at a density of 2500 cells per well in 100 μL of growth medium and incubated for 24 h at 37° C. […] Fluorescence intensity of each well was read with excitation and emission wavelengths of 560 nm and 590 nm, respectively. […]

[2] = test system: human retinal endothelial cells (HRECs); experiment: Anti-proliferative effect on HRECs (Alamar Blue); format: cell-based; conditions: 100 μM GRF equivalent, 48 hours
Procedure: Human retinal endothelial cells (HREC) were plated in transparent 96 well plates at a density of 2500 cells per well in 100 μL of growth medium and incubated for 24 h at 37° C. The medium was replaced with the samples collected at different time points. After 48 hours incubation, 11.1 μL Alamar Blue reagent was added to each well. After 4 hours incubation, plates were centrifuged at 200 g for 5 minutes, and 50 μL supernatant was transferred to black 96 well plates. Fluorescence intensity of each well was read with excitation and emission wavelengths of 560 nm and 590 nm, respectively.

What does the source list for `COC1=CC(=O)C[C@@H](C)[C@]12Oc1c(Cl)c(OC)cc(OC)c1C2=O` [Free GRF, (2S,6′R)-7-chloro-2′,4,6-trimethoxy-6′-methyl-3H-spiro[benzofuran-2,1′-cyclohexan]-2′-ene-3,4′-dione]?
long-term anti-proliferative effect on HREC (in words) ([1]; release samples over the incubation period): effective only at the first time point; time averaged proliferation inhibition index (PII) ([1]; Σ AUC/time from % proliferation vs. time plot, HREC): 13.6; inhibited proliferation of HRECs [2]: 53.5%
